Test results: US20240262845A1, “PYRIDINIUM SALTS, METHODS OF MAKING, AND METHODS OF USE” (UNIVERSITY OF WYOMING, priority 2023, published 2024)
Entries after “also recorded” stand apart in the source; their conditions may differ. Counter-ions that a name gives are not always drawn.

Assays:
HEK293T lysates = assay: Chemoproteomic profiling of HEK293T lysates (protein-level enrichment); format: biochemical, human; details: for Western blot (streptavidin-HRP) proteome labeling profile of elutions: 0-100 μM probe, with/without light, before digestion; for number of proteins identified (from ≥2 unique peptides) showing ≥2-fold enrichment versus DMSO: about 100 μM probe, 5 mg/mL lysate, 60 min incubation, 20 min irradiation: 302 nm (1a), 320 nm (1b), 440 nm (2b)
Procedure: In lysate tryptophan probe treatment for protein-level characterization: HEK293T cell pellets were suspended in native lysis buffer (50 mM HEPES pH 7.5, 150 mM sodium chloride (NaCl), 1.5 mM MgCl2, 1 mM DTT, 0.8% NP-40, 5% glycerol, and 1× protease inhibitors (Thermo)) at 2× the pellet volume. The samples were sonicated on ice for 30 seconds at 20% amplitude with a 2 second pulse ON and 3 second pulse OFF. Cell debris was removed by centrifugation at 20,000×g for 20 minutes at 4° C. Protein concentration was determined by bicinchoninic acid (BCA) (Pierce) and diluted down to 5 mg/mL with ChemProt buffer (50 mM HEPES pH 7.5, 150 mM NaCl, 1.5 mM MgCl2, 1 mM DTT, 0.4% NP-40, and 1x protease inhibitors (Thermo). 5 mg cell lysates were treated with 100× stocks of the tryptophan probes (pyridinium salts 1a, 1b, and 2b) to generate final concentrations (0, 1, 10, and 100 μM) in 1% DMSO. Lysates were incubated for 1 hour at 4° C. followed by photo-activation at respective wavelengths for 20 minutes at 4° C. Excess probe was removed using Sephadex G-25 PD-10 desalting columns (GE Healthcare) pre-equilibrated with 50 mM HEPES pH 7.5, 150 mM NaCl, 1.5 mM MgCl2, and 0.4% NP-40. The samples were then treated with 100 μL Neutravidin resin as a 50% slurry (Peirce). The samples were incubated overnight on a rotating apparatus at R.T. The following day, the beads were transferred to a MobiCol column (Boca Scientific), washed 3× with phosphate buffered saline (PBS) containing 0.2% SDS, washed 3× with PBS, and the enriched proteins were eluted with 2× NuPAGE lithium dodecyl sulfate (LDS) containing 10 mM DTT (Pierce) and heated for 30 minutes at 55° C. The eluent was collected and subsequently treated with 20 mM iodoacetamide (Pierce) for 30 minutes at R.T. protected from light. Samples were passed through detergent removal columns (Pierce) that were pre-equilibrated with 50 mM HEPES pH 8.0. The samples were treated with 2.5 μg Trypsin/LysC (Promega) at 37° C. for 16 hours. The following day, the sample was collected and prepped for isobaric labeling with TMT reagents (Thermo) as specified by the manufacturer.
Quantitative proteomics by two-dimensional nano liquid chromatography-tandem mass spectrometry (nLC-MS/MS): For protein-level characterization, the TMT-labeled sample were reconstituted in 0.1% formic acid (FA)/2% acetonitrile for offline high-pH reversed phase separation (RP10) using a Dionex UltiMate 3000 high-performance liquid chromatography (HPLC) system with fraction collection using Chromeleon v.6.8 (Thermo) software. Separation was achieved on a Waters Xbridge C18 3.5 μm 2.1×150 mm HPLC column (Waters) using a flow rate of 250 μL min-1 and the following ternary gradient and conditions: mobile phase A=water (HPLC grade), mobile phase B=acetonitrile (HPLC grade), and mobile phase C=200 mM ammonium acetate, pH 10. Mobile phase C is held at 10% throughout gradient. Starting conditions are 89% mobile phase A and 1% mobile phase B, ramping mobile phase B to 80% over 65 min. Fractions were collected in 96-well plates at 100 sec per well. Fractions were reduced down to 12 fractions, dried, and reconstituted in 0.1% FA/2% acetonitrile for nLC-MS/MS. All data were acquired using a Orbitrap Fusion Lumos coupled to an Easy-nLC 1200 nanoflow liquid chromatograph operating at 300 nL min-1. Peptides were cleaned up using a 1 cm online custom trap then eluted on a custom 20 cm laser pulled 75 μm column with C18 resin. Peptides were quantified using the synchronous precursor selection (SPS-MS3) or HCD method for TMT quantitation with 120k MS1 resolving power, 50 ms max injection time and 100% AGC. MS2 spectra were selected using the top ten most abundant features with a charge state between 2-6 using CID (collision induced dissociation) in the ion trap. The AGC was set to 100% with an isolation width of 0.7. MS3 was performed on the top 10 most abundant MS2 features between 400-1600 amu with a collision energy of 55%, AGC of 250%, and 50k resolution. […]

lysozyme = target: T1, lysozyme (Gallus gallus, UniProt P00698); assay: Photochemical labeling of lysozyme with pyridinium salts (General Procedure B, LC/MS); format: biochemical, chicken; details: lysozyme labeling
T1 construct: Lysozyme (from chicken egg white, >40,000 units/mg of protein); purchased Sigma Aldrich; host or cells: chicken egg white
T1 sequence (P00698 19-147): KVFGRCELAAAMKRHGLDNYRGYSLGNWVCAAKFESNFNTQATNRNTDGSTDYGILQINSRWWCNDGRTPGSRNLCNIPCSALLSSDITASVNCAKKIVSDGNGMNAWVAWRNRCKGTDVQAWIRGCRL
Procedure: General Procedure B: Photochemical Irradiation of Peptides and Proteins: To a 2 mL Pyrex LC/MS vial (Thermo model #03-391-39) were sequentially added solutions containing the desired biomolecule, glutathione (GSH), pyridinium salt, and ammonium acetate (NH4OAc). The resulting solution was diluted to a final volume of 500 μL and then sparged using nitrogen for a minimum of 30 minutes prior to irradiation. The actively sparging solution was then placed in an EvoluChem™ PhotoRedOx Box photoreactor that was equipped with a Kessil, PR160 427 nm LED Lamp and was then irradiated (100% lamp intensity) for the designated time at room temperature while maintaining active sparging. The resultant reaction mixture was then analyzed directly by LC/MS. Analysis of labeling outcomes using LC/MS was performed either by extracted ion chromatogram intensities (method A) or by integrating the area under the peaks associated with peptide content (method B). These values were totaled, and estimated percentages were assigned according to relative intensities of peaks or ion counts.
Labeling of Lysozyme with Pyridinium Salt 2a (Lysozyme-2a Conjugate). Labeling of lysozyme (14.3 kDa) with the pyridinium salt 2a was performed by following general procedure B using the following solutions: lysozyme (27 μL, 182 μM, 10 μM final concentration), pyridinium salt 2a (200 μL, 500 μM, 200 μM final concentration), NH4OAc (100 μL, 100 mM, pH=6.9, 20 mM final concentration), glutathione (15 μL, 10 mM, 300 μM final concentration), and water (158 μL) with a 100% intensity irradiation time of 60 minutes. The reaction mixture was analyzed directly by LC/MS using method A and was estimated to have proceeded in >95% conversion and a 10.9:1 mono:di labeled ratio and 10% glutathionylation of all unlabeled and labeled protein content was observed.
Labeling of Lysozyme with Pyridinium Salt 2b (Lysozyme-2b Conjugate). Labeling of lysozyme (14.3 kDa) with the pyridinium salt 2b was performed by following general procedure Busing the following solutions: lysozyme (19 μL, 262 μM, […]), 2b (181 μL, 554 μM, 200 μM final concentration), NH4OAc (50 μL, 200 mM, pH=6.9, 20 mM final concentration), glutathione (50 μL, 3 mM, 300 μM final concentration), and water (200 μL) with a 100% intensity irradiation time of 10 minutes. The reaction mixture was analyzed directly by LC/MS using method A and was estimated to have proceeded with 83% conversion. […]
Labeling of Lysozyme with Pyridinium Salt 2c (Lysozyme-2c Conjugate). […] The reaction mixture was analyzed directly by LC/MS using method A and was estimated to have proceeded with 85% conversion and a 3.7:1 mono:di labeled ratio and 10% glutathionylation of all protein content was observed. […]

| Structure (SMILES) | Western blot (streptavidin-HRP) proteome labeling profile of elutions (HEK293T lysates) | number of proteins identified (from ≥2 unique peptides) showing ≥2-fold enrichment versus DMSO (HEK293T lysates) | labeling rate compared to pyridinium salt 2a (lysozyme) |
| --- | --- | --- | --- |
| Cc1cc(C)[n+](N(C)C(=O)OCCCCC[C@@H]2SC[C@@H]3NC(=O)N[C@@H]32)c(C)c1 [pyridinium salt 1a, 2,4,6-trimethyl-1-(methyl(((5-((3aS,4S,6aR)-2-oxohexahydro-1H-thieno[3,4-d]imidazol-4-yl)pentyl)oxy)carbonyl)amino)pyridin-1-ium tetrafluoroborate] | concentration and optically dependent proteome labeling profiles; also recorded: loss of signal | 185 | – |
| Cc1cc(-c2ccccc2)cc(C)[n+]1N(C)C(=O)OCCCCC[C@@H]1SC[C@@H]2NC(=O)N[C@@H]21 [pyridinium salt 1b, 2,6-dimethyl-1-(methyl(((5-((3aS,4S,6aR)-2-oxohexahydro-1H-thieno[3,4-d]imidazole-4-yl)pentyl)oxy)carbonyl)amino)-4-phenylpyridin-1-ium tetrafluoroborate] | concentration and optically dependent proteome labeling profiles; also recorded: dose-response profiles | 365 | – |
| COc1ccc2cc(-c3cc(C)[n+](N(C)C(=O)OCCCCCC[C@H]4NC(=O)N[C@H]4C)c(C)c3)ccc2c1 [pyridinium salt 2c, 4-(6-methoxynaphthalen-2-yl)-2,6-dimethyl-1-(methyl(((6-((4R,5S)-5-methyl-2-oxoimidazolidin-4-yl)hexyl)oxy)carbonyl)amino)pyridin-1-ium trifluoroacetate] | – | – | enhanced rate |
